Tested on: cell lines harbouring ras or FGFR3 activating mutations especially multiple myeloma cell lines
Experiment: potency toward cell lines harbouring ras or FGFR3 activating mutations
Format: cell-based
Details: especially multiple myeloma cell lines harbouring the ras or FGFR3

SMILES: CO[C@@H]1[C@H](N(C)C(=O)c2ccccc2)C[C@H]2O[C@]1(C)n1c3ccccc3c3c4c(c5c6ccccc6n2c5c31)C(=O)NC4 [MIDOSTAURIN, N-[(9S,10R,11R,13R)-2,3,10,11,12,13-hexahydro-10-methoxy-9-methyl-1-oxo-9,13-epoxy-1H,9H-diindolo[1,2,3-gh:3′,2′,1′-lm]pyrrolo[3,4-j][1,7]benzodiazonin-11-yl]-N-methylbenzamide]
- potency toward cell lines harbouring ras or FGFR3 activating mutations: unexpected high potency
